We go through 6 compounds from ChEMBL document CHEMBL5291721, “A preclinical secondary pharmacology resource illuminates target-adverse drug reaction associations of marketed drugs” (Nat Commun, 2023).

In test [1] the target is T1, Endothelin receptor type B (Homo sapiens, UniProt P24530).
T1 sequence (P24530 whole entry): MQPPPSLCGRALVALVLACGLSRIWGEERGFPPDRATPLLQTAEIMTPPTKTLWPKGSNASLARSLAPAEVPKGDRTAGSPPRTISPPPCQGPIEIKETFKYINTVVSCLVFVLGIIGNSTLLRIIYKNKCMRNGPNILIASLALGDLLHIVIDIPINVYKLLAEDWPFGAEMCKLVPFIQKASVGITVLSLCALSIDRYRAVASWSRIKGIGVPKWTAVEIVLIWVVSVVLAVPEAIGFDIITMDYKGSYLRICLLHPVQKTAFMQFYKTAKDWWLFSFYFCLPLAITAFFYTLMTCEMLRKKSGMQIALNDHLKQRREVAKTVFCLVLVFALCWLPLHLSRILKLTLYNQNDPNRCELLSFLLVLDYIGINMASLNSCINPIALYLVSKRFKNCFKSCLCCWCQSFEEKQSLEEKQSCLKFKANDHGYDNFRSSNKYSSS

For test [2], the target named is T2, Neuropeptide Y receptor type 2 (Homo sapiens, UniProt P49146).
T2 sequence (P49146 whole entry): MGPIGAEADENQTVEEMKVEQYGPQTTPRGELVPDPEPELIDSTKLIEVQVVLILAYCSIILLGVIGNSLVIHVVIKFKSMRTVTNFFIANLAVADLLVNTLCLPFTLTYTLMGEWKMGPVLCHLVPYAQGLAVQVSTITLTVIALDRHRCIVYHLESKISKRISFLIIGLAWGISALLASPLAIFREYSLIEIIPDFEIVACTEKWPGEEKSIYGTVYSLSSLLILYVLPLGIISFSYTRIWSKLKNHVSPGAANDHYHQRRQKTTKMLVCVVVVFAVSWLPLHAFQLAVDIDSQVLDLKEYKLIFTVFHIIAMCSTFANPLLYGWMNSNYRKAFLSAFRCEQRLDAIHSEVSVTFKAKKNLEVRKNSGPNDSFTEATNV

For test [3], the target named is T3, B1 bradykinin receptor (Homo sapiens, UniProt P46663).
T3 sequence (P46663 whole entry): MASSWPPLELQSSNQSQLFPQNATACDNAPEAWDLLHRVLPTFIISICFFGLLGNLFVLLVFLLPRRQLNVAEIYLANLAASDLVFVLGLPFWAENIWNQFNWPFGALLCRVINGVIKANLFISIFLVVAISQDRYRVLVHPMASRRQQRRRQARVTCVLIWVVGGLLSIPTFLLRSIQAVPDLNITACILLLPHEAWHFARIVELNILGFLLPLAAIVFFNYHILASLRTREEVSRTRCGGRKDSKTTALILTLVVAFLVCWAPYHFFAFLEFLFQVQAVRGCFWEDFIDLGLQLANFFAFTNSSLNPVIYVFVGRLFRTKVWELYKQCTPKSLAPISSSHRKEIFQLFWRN

In test [4] the target is T4, Corticotropin-releasing factor receptor 1 (Homo sapiens, UniProt P34998).
T4 sequence (P34998 whole entry): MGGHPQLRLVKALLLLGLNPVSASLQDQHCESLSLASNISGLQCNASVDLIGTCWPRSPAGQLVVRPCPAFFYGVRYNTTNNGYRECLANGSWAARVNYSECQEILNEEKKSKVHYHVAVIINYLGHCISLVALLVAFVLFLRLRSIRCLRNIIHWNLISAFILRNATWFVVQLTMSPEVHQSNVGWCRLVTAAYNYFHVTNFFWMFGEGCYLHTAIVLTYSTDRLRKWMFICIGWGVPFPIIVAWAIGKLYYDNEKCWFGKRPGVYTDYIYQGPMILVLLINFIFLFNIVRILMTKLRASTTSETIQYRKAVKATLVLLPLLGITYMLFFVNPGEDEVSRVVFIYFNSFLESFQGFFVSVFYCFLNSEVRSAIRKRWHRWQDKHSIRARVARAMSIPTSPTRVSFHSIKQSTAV

Test [5] has as its target Histamine H3 receptor (Homo sapiens, UniProt Q9Y5N1).
In test [6] the target is Sodium-dependent noradrenaline transporter (Homo sapiens, UniProt P23975).
In test [7] the target is T5, 5-hydroxytryptamine receptor 1A (Homo sapiens, UniProt P08908).
T5 sequence (P08908 whole entry): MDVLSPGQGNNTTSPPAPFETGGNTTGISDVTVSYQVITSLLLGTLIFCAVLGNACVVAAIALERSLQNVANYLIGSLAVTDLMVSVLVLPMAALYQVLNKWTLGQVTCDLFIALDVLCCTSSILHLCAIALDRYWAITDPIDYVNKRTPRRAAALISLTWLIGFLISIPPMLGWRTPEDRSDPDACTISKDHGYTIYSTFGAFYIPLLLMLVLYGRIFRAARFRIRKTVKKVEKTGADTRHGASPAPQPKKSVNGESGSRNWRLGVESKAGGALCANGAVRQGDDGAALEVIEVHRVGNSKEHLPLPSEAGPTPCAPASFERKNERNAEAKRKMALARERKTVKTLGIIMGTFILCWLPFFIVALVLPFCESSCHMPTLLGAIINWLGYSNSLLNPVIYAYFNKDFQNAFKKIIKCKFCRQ

Test [8] has as its target Mu-type opioid receptor (Homo sapiens, UniProt P35372).
The target in test [9] is T6, Muscarinic acetylcholine receptor M2 (Homo sapiens, UniProt P08172).
T6 sequence (P08172 whole entry): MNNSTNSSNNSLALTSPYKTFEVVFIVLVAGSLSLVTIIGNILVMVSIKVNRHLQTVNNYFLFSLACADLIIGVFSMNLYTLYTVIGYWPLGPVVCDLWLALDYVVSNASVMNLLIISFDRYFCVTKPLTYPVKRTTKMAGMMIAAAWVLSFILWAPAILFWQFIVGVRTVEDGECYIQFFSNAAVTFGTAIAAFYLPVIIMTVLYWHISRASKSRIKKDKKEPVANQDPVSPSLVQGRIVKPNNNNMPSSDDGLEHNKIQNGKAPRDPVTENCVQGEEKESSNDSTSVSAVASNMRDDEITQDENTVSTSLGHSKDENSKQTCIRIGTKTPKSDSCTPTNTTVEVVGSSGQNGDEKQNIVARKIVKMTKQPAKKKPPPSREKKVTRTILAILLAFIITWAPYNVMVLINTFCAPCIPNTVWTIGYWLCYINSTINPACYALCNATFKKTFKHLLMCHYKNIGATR

The target of test [10] is T7, Prostaglandin G/H synthase 1 (Homo sapiens, UniProt P23219). The test is classed as functional.
Test [11] has as its target T7, Prostaglandin G/H synthase 1. In kind it is functional. This is another data set of the same source.
Test [12] addresses Histamine H1 receptor (Homo sapiens, UniProt P35367). The test is classed as functional, cell-based.
Further: assay procedure not described here.

T7 sequence (P23219 whole entry): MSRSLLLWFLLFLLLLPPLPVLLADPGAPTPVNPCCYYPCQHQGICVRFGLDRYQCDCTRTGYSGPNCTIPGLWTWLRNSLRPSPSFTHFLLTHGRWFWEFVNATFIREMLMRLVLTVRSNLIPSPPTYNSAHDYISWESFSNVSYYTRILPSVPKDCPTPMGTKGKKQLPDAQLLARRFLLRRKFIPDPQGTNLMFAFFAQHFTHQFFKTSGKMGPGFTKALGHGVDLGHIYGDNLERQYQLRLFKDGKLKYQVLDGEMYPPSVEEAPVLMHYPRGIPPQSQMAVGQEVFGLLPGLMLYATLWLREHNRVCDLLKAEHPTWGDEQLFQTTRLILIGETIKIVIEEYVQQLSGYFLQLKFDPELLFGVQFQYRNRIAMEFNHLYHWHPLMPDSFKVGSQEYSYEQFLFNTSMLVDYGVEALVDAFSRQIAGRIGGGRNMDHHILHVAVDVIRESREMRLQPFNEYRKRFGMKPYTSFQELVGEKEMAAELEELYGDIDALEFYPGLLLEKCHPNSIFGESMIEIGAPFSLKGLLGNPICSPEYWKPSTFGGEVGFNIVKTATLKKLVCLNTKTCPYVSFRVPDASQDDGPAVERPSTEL
Sequence of Histamine H1 receptor (P35367 whole entry): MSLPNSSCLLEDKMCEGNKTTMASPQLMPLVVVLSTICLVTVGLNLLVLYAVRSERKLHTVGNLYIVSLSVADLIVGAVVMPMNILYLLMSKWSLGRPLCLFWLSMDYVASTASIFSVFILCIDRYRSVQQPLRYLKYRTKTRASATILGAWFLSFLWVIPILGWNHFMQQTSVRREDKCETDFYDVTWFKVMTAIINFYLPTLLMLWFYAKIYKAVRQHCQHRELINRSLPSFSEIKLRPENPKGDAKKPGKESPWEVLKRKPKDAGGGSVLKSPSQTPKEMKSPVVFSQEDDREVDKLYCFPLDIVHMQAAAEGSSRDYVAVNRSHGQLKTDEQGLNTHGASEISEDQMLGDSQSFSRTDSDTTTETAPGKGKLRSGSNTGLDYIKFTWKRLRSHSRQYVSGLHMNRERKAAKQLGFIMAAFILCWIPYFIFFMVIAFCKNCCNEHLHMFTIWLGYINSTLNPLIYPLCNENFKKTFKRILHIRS
Sequence of Histamine H3 receptor (Q9Y5N1 whole entry): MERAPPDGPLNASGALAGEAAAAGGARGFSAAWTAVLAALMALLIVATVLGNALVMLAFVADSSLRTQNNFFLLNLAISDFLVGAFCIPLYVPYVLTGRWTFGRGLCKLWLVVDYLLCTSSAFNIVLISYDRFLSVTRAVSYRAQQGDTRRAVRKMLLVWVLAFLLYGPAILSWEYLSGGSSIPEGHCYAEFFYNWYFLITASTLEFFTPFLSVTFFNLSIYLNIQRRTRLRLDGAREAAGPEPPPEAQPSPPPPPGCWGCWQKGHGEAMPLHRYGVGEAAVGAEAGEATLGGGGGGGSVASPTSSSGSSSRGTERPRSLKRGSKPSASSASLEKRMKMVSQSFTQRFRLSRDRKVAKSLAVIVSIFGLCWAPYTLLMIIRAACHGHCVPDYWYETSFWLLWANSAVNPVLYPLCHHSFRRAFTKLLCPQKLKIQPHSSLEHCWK
Sequence of Mu-type opioid receptor (P35372 whole entry): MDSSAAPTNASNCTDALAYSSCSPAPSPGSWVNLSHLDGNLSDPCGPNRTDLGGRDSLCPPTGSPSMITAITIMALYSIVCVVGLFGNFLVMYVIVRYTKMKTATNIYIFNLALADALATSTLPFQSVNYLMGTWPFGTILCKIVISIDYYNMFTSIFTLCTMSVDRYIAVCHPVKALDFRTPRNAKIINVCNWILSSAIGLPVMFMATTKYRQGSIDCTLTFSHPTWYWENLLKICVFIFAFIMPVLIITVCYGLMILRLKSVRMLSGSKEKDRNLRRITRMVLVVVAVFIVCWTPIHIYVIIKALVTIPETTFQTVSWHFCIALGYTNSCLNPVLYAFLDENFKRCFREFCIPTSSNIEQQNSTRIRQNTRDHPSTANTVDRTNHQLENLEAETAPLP
Sequence of Sodium-dependent noradrenaline transporter (P23975 whole entry): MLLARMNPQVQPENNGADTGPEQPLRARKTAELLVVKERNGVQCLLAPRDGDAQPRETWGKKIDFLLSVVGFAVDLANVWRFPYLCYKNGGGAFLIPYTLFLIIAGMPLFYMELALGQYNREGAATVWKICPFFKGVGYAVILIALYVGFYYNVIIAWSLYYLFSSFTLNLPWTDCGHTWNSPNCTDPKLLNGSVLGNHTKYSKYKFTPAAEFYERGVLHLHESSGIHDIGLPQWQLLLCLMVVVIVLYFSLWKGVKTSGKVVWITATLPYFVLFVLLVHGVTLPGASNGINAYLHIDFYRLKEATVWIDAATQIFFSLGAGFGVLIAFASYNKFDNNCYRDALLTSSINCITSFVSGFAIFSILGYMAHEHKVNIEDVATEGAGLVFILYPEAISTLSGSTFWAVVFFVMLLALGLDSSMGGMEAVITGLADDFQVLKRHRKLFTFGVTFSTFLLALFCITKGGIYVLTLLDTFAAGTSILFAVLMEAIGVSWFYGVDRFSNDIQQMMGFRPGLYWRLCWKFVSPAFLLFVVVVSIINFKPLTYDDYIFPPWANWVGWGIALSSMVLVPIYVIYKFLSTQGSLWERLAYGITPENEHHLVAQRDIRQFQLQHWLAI

Consider `Cn1c(=O)cc(N2CCC[C@@H](N)C2)n(Cc2ccccc2C#N)c1=O` [ALOGLIPTIN], for which the AC50 in [1], in [2], in [3] and in test [4] was greater than 30 µM in each case.

`Nc1c2ccccc2nc2ccccc12` [AMINACRINE]: the AC50 is greater than 30 µM in [5]; 2950 nM in test [6]; greater than 30 µM in test [7]; 13.8 µM in test [8]; 4.27 µM in test [9]; greater than 30 µM in test [10]. Also, in test [11], the AC50 is greater than 30 µM.

Compound `CCN1CCCC1CNC(=O)c1cc(S(=O)(=O)CC)c(N)cc1OC` (centres undefined) [AMISULPRIDE] showed an AC50 in test [12] greater than 30 µM.

For the compound `CC(=O)OCC(=O)[C@@]1(O)[C@H](C)C[C@H]2[C@@H]3CCC4=CC(=O)C=C[C@]4(C)[C@@]3(F)[C@@H](O)C[C@@]21C` [DEXAMETHASONE ACETATE], the AC50 in test [1], in [2], in [3] and in test [4] was greater than 30 µM throughout.

Take `O=C(O)CCCCC1CCSS1` (stereo not drawn) [LIPOIC ACID, ALPHA]: the AC50 is greater than 30 µM in test [5]; greater than 30000 nM in test [6]; greater than 30 µM in test [7]; greater than 30 µM in test [8]; greater than 30 µM in [9]; greater than 30 µM in test [10]. The AC50 in test [11] is greater than 30 µM.

`OCc1cc(C(O)CNCCCCCCOCCCCc2ccccc2)ccc1O` (centres undefined) [SALMETEROL]: the AC50 in test [12] was greater than 30 µM.
